Reference: patent US8969088B2, “Substrate mimicking intercellular lipids in stratum corneum and method of evaluating skin roughening using the same” (Shiseido Company, Ltd., priority 2008, dated 2015)

Assay: Myelin figure formation on exposing the lipids-mimicking substrate to surfactant (microscopy)
Settings: aqueous solution 5.0 mg/cm^3, 25° C., 6 hours, lipid membrane 50 μm
Protocol: Multiple substrates mimicking intercellular lipids in stratum corneum, each having a lipid membrane controlled to a thickness of 50 μm were exposed to an aqueous solution (5.0 mg/cm^3) of SDS (99.0%) (Nacalai Tesque, Inc., Kyoto, Japan) at a temperature of 25° C. for 6 hours. Each exposed substrate was rinsed with a small amount of water and dried, and used for the following evaluation test.
Upon examination of surfactants other than SDS, a myelin figure was formed with some and not formed with others. For each of the examined surfactants, the shortest distance from the edge of the substrate to the tip of the myelin figure (hereunder referred to as “myelin figure formation distance”) was measured.

Structure (SMILES): CCCCCCCCCCCCOS(=O)(=O)[O-].[Na+] [SDS]
- myelin figure formation: formation of a myelin figure within a constant range
